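Compound exposure: 48 hours, 5 concentrations, 96-well plates. Here, GI50 denotes the concentration required for 50% inhibition of growth.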 The source made the active and inactive calls. No stated cut-off is given here; in the data, active = GI50 up to about 1.1 µM and inactive = higher.
How the values were obtained:
Test in all cases: DTP human tumour cell line panel, 48 h
T47D = test system: T47D
SR = test system: SR
K562 = test system: K562
SK-MEL-28 = test system: SK-MEL-28
PC-3 = test system: PC-3
HOP-62 = test system: HOP-62
SN12C = test system: SN12C
SK-MEL-2 = test system: SK-MEL-2
MDA-MB-231 = test system: MDA-MB-231
IGROV-1 = test system: IGROV-1
SNB-19 = test system: SNB-19
MCF7 = test system: MCF7
KM12 = test system: KM12
DU-145 = test system: DU-145
Hs-578T = test system: Hs-578T
BT-549 = test system: BT-549

Measured: GI50

CC1(C)N=c2c(ncn2Cc2ccccc2)=C(C(N)=O)N1
inactive: T47D > 100 µM | SR > 100 µM | K562 > 100 µM | SK-MEL-28 > 100 µM | PC-3 > 100 µM | HOP-62 > 100 µM | SN12C > 100 µM | SK-MEL-2 > 100 µM | MDA-MB-231 > 100 µM | IGROV-1 > 100 µM | SNB-19 > 100 µM | MCF7 > 100 µM | KM12 > 100 µM | DU-145 > 100 µM | Hs-578T > 100 µM

COC(=O)CP1(=O)OC2C(C3CCC2(C)C3(C)C)N1c1cc(C(F)(F)F)cc(C(F)(F)F)c1 (centres undefined)
inactive: T47D 19.1 µM | SR 24.8 µM | K562 19.5 µM | SK-MEL-28 42.9 µM | PC-3 19.9 µM | BT-549 27.2 µM | HOP-62 31.2 µM | SK-MEL-2 20.9 µM | MDA-MB-231 20.6 µM | IGROV-1 45.7 µM | SNB-19 32.7 µM | MCF7 > 100 µM | KM12 17.1 µM | DU-145 31.3 µM

CCOC(=O)[C@@]12CCC(C1=O)[C@](C)(O)C[C@@H]2c1ccccc1
inactive: T47D 39 µM | K562 30.4 µM | SK-MEL-28 79.3 µM | PC-3 34 µM | BT-549 58.5 µM | HOP-62 71.1 µM | SN12C 24.8 µM | SK-MEL-2 38.1 µM | MDA-MB-231 36.5 µM | IGROV-1 35.4 µM | SNB-19 43.7 µM | KM12 31.8 µM | DU-145 85.9 µM | Hs-578T 22.6 µM

Nc1ncnc2c1nnn2C1C=CC(CP(=O)(O)O)C1 (centres undefined)
inactive: T47D > 100 µM | SK-MEL-28 > 100 µM | PC-3 > 100 µM | HOP-62 > 100 µM | SN12C > 100 µM | SK-MEL-2 > 100 µM | MDA-MB-231 > 100 µM | IGROV-1 > 100 µM | SNB-19 > 100 µM | MCF7 > 100 µM | KM12 > 100 µM | DU-145 > 100 µM | Hs-578T > 100 µM

Cn1cnc(N2CCCC2)c(C#N)c1=S
inactive: T47D > 100 µM | SR > 100 µM | K562 > 100 µM | SK-MEL-28 > 100 µM | PC-3 > 100 µM | HOP-62 > 100 µM | SN12C > 100 µM | SK-MEL-2 > 100 µM | MDA-MB-231 > 100 µM | IGROV-1 > 100 µM | SNB-19 > 100 µM | MCF7 > 100 µM | KM12 > 100 µM | DU-145 > 100 µM | Hs-578T > 100 µM

Cc1cccc(CC(Cc2c(C)cccc2C(=O)O)C(=O)O)c1 (centres undefined)
inactive: SR > 100 µM | K562 > 100 µM | SK-MEL-28 > 100 µM | PC-3 > 100 µM | BT-549 > 100 µM | HOP-62 > 100 µM | SN12C > 100 µM | SK-MEL-2 58.7 µM | MDA-MB-231 > 100 µM | IGROV-1 > 100 µM | SNB-19 > 100 µM | MCF7 > 100 µM | KM12 > 100 µM | DU-145 > 100 µM | Hs-578T > 100 µM

C=CCC1C2CCC(O[Si](C(C)C)(C(C)C)C(C)C)(C(C(=O)OC)C2)C1O (centres undefined)
inactive: T47D 38.8 µM | SR 17.6 µM | K562 71.9 µM | SK-MEL-28 65.8 µM | PC-3 67.5 µM | HOP-62 > 100 µM | SN12C > 100 µM | SK-MEL-2 41.9 µM | MDA-MB-231 > 100 µM | IGROV-1 69.2 µM | SNB-19 > 100 µM | MCF7 35.4 µM | KM12 54.5 µM | DU-145 > 100 µM | Hs-578T 23.6 µM

NCCCn1c2ccccc2c2c3c(c4c(c21)CCC(O)CC4)C(=O)NC3=O (centres undefined)
active: K562 0.69 µM | SK-MEL-28 0.92 µM | MCF7 0.796 µM | KM12 0.458 µM
inactive: SR 1.69 µM | PC-3 3.48 µM | BT-549 4.81 µM | HOP-62 2.5 µM | SN12C 2.42 µM | SK-MEL-2 10.4 µM | MDA-MB-231 1.85 µM | IGROV-1 9.79 µM | DU-145 3.7 µM | Hs-578T 3.13 µM

CCCC(=O)Oc1cc(OC(=O)CCC)c2c(C)cc(=O)oc2c1
inactive: SR 18.5 µM | K562 44.9 µM | SK-MEL-28 > 100 µM | PC-3 76.2 µM | HOP-62 > 100 µM | SN12C > 100 µM | SK-MEL-2 > 100 µM | MDA-MB-231 > 100 µM | IGROV-1 44.1 µM | SNB-19 > 100 µM | MCF7 54.5 µM | KM12 32.5 µM | DU-145 > 100 µM | Hs-578T 48.4 µM
